Reference: paper PMC4067310, “From Pan-Reactive KV7 Channel Opener to Subtype Selective Opener/Inhibitor by Addition of a Methyl Group” (PLoS ONE, 2014)

Experiments:
KV7.2-W236L = molecular target: T1, KV7.2-W236L (Homo sapiens, UniProt O43526, W236L); assay: Two-electrode voltage-clamp of mutant KV7.2-W236L in Xenopus laevis oocytes; type: cell-based
T1 construct: expressed in transfected cells; host or cells: Xenopus laevis oocytes injected with cRNA (pGEM-HE vector)
Method: (§1) Point mutations were introduced using mutated oligonucleotide extension (PfuTurbo Polymerase, Stratagene, La Jolla, CA, USA) from a plasmid template harboring the cDNA of interest, digested with DpnI (Fermentas, St. Leon-Roth, Germany) and transformed into E.coli XL1 Blue cells. The construct was verified by complete DNA sequencing of the cDNA insert. cRNA was prepared from linearized human wild-type (WT) and mutant KV7 channels in the pGEM-HE vector using the T7 m-Message Machine kit (Ambion, Austin, TX, USA) according to the manufacturer's instructions.
(§2) Extraction of Xenopus laevis oocytes and injection of cRNA was performed as described previously. Oocytes were kept in Modified Barth's Saline (in mM: 88 NaCl, 1 KCl, 2.4 NaHCO3, 0.41 CaCl2, 0.82 MgSO4, 0.3 Ca(NO3)2, 15 HEPES, pH 7.4 supplemented with 100 U/mL penicillin and 100 µg/mL streptomycin) at 18°C, and currents were recorded after 2-7 days. The care of Xenopus laevis and the oocyte extraction procedure were performed according to national guidelines and approved by the Danish Animal Experiments Inspectorate.
(§3) KV7 currents in Xenopus laevis oocytes were recorded using two-electrode voltage-clamp at room temperature in Ringer buffer (in mM: 115 NaCl, 2.5 KCl, 1.8 CaCl2, 0.1 MgCl2, 10 HEPES, pH 7.4) as described previously. Data was acquired using pCLAMP 10.2 software (Molecular Devices, CA, USA) and analyzed using pCLAMP 10.2 and GraphPad Prism 4.0 (GraphPad Software Inc., CA, USA). Currents were elicited from a holding potential of −80 mV by 5 s steps to potentials between −100 and +50 mV in 10 mV increments, followed by a 2 s step to −120 mV.
(§4) SMB-1 was dissolved in dimethyl sulfoxide (DMSO) to obtain a concentrated stock solution. On the day of experiments the stock solution was thawed and diluted in Ringer buffer to the final concentrations. A concentration of 10 µM SMB-1 was used unless indicated otherwise. The final DMSO concentration never exceeded 0.1%.
(§5) Current – voltage (I–V) relationship curves were generated by normalizing the steady-state peak current measured at potentials between −100 and +50 mV to the current measured at +50 mV in control recordings and plotting the values against the test potential.
(§6) The voltage-dependence of activation was determined from tail current analysis using the current measured immediately after the transient capacitive current after stepping to −120 mV from potentials between −100 mV and +50 mV. Data was normalized to extend from 0–1 and the tail current-voltage relationship was fitted to the Boltzmann equation: [drawing 1] (Equation\;1) where I max is the maximum tail current, I min is the minimum tail current, V0.5 is the potential for half maximal activation and k is the slope factor. A V0.5 was calculated for each individual experiment and statistical significance was estimated by paired two-tailed Student's t-test.
Activation kinetics for KV7.2 and KV7.2-W236L was determined by fitting the traces recorded at potentials between −40 and +40 mV to a double exponential function: [drawing 2] (Equation\;2) where I(t) is the current at time t, Ifast and Islow are the current amplitudes at infinite times, and τfast and τslow are the time constants of the fast and slow components, respectively.
(§7) For investigation of deactivation kinetics the tail current traces recorded at −120 mV when stepping from the channels' respective ∼V0.5 were fitted to a single exponential function (Eq. 3).

KV7.4 = molecular target: T2, KV7.4 (Homo sapiens, UniProt P56696); assay: Two-electrode voltage-clamp of KV7.4 expressed in Xenopus laevis oocytes; type: cell-based
T2 construct: expressed in transfected cells; host or cells: Xenopus laevis oocytes injected with cRNA (pGEM-HE vector)
T2 sequence (P56696 1-695): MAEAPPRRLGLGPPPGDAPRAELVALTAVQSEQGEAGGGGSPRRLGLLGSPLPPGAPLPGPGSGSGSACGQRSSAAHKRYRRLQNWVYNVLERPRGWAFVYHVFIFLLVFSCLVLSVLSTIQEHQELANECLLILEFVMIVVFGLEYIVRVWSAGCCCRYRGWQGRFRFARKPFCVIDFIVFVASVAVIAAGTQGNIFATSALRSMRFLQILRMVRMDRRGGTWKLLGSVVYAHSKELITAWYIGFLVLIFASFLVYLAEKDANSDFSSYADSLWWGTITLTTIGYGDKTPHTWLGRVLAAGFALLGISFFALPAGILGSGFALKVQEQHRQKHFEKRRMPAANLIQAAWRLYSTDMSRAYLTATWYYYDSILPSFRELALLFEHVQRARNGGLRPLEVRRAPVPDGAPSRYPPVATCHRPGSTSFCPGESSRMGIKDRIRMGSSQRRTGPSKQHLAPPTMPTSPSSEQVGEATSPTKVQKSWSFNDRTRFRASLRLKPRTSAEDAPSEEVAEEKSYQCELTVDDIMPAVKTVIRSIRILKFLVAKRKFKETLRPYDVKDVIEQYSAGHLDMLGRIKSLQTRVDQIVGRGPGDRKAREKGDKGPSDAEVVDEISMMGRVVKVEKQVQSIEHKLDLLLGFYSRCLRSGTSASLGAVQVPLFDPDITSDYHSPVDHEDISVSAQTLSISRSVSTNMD
Method: as §1, §2, §3, §4, §5, §6
Activation kinetics for KV7.4 and KV7.4-W242L was determined by fitting the traces recorded at potentials between −30 and +50 mV to a single exponential function: [drawing 3] (Equation\;3) where I(t) is the current at time t, I 0 is the peak current and τ is the activation time constant.
as §7
Dose-response curves from electrophysiological experiments were made by plotting the increase in steady state current at +50 mV expressed in percentages as a function of drug concentration. The data were then analyzed by non-linear regression and fitted to the equation for sigmoidal dose-response with variable slope: [drawing 4] (Equation\;4) where R1 is the initial response, R2 is the maximum response, X is the logarithm of the drug concentration and nH is the slope (Hill coefficient) of the curve.

[1] = Free fraction by equilibrium dialysis, rat plasma; type: in vitro ADME; conditions: equilibrium dialysis 37°C 5 h, mean ± S.E.M., n = 3
Method: (§8) The bidirectional permeability (Papp) of SMB-1 was examined in an MDCK cell system expressing human MDR1 [ABCB1, P-glycoprotein (P-gp)] as described previously. Permeation of the test compound from apical (A) to basal (B) direction or B to A direction was determined in triplicate over a 150-min incubation at 37°C. The efflux ratio was calculated as the ratio between Papp (B to A) and Papp (A to B). Free fraction of SMB-1 was determined using a standard equilibrium dialysis methodology with freshly isolated rat brain homogenate or plasma. Equilibrium dialysis was performed by incubating at 37°C for 5 h in triplicates.

[2] = Free fraction by equilibrium dialysis, rat brain homogenate; type: in vitro ADME; conditions: equilibrium dialysis 37°C 5 h, mean ± S.E.M., n = 3
Method: as §8

T1 sequence (O43526 whole entry W236L): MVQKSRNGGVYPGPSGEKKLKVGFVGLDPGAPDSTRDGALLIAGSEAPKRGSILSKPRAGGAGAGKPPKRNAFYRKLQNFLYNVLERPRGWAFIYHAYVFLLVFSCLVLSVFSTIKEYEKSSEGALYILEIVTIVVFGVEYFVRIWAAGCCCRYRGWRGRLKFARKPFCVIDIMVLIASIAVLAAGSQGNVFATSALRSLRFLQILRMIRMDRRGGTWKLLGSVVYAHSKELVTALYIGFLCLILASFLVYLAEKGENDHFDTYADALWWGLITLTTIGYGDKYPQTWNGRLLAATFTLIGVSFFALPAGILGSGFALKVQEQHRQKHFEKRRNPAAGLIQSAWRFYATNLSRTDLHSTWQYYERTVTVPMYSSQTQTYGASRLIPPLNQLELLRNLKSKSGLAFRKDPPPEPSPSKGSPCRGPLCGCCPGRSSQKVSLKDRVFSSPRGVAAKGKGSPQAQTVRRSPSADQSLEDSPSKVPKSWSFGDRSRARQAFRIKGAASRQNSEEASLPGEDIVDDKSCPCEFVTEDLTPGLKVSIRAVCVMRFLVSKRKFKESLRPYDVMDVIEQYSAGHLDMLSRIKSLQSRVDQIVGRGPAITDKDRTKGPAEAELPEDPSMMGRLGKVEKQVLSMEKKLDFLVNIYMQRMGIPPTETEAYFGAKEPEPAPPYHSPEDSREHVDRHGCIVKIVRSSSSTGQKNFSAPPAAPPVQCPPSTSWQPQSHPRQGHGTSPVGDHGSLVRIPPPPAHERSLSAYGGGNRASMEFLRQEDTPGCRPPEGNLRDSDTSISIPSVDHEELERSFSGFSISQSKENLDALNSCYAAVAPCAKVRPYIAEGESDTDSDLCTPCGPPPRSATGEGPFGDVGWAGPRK

- effect on τact_fast (KV7.2-W236L; 10 µM): no significant effect
- remaining activity at 10 µM (KV7.2-W236L; 10 µM SMB-1, +50 mV, n = 6, read-out: current amplitude, % of control): 68.8 ± 3.9%
- effect on τact_slow (KV7.2-W236L; 10 µM, at potentials above −20 mV): significantly increased
- τdeact, deactivation time constant in presence of compound (KV7.2-W236L; 10 µM, control 23.3±2.9 ms, n = 6, p<0.05): 27.0 ± 3.0 ms
- V0.5, voltage-dependence of activation in presence of compound (KV7.2-W236L; 10 µM, control −27.1±2.4 mV, n = 4, p = 0.2): −15.0±10.1 mV
- current amplitude, % of control at 10 µM (KV7.4; 10 µM SMB-1, +50 mV, n = 8): 184 ± 12.4%
- effect on τact (KV7.4; 10 µM, at all potentials tested): significantly increased
- τdeact, deactivation time constant in presence of compound (KV7.4; 10 µM, control 10.3±0.6 ms, n = 8, p<0.001): 16.4 ± 1.2 ms
- V0.5, voltage-dependence of activation in presence of compound (KV7.4; 10 µM, control −0.2±3.6 mV, n = 8, p = 0.59): −1.4±3.4 mV
- Emax (KV7.4; +50 mV, n = 5, read-out: maximal efficacy): 213 ± 33.1%
- EC50 (KV7.4; increase in steady state current at +50 mV, n = 5): 5.7 µM
- fraction unbound at 5 h [1]: 0.006 ± 0.004
- fraction unbound at 5 h [2]: 0.001 ± 0.001
SMILES: C[C@@H](c1ccc2c(c1)N(CC1CC1)CCO2)N(C)C(=O)/C=C/c1ccccc1F [SMB-1, (E)-N-[(S)-1-(4-Cyclopropylmethyl-3,4-dihydro-2H-1,4-benzoxazin-6-yl)-ethyl]-3-(2-fluoro-phenyl)-N-methyl-acrylamide]
